EP4023291A1, “FAT METABOLISM PROMOTER” (Asahi Group Holdings, Ltd., priority 2019, dated 2021)

Assays:
non-transformed cells = test: Test 9: TRPA1 activity test, non-transformed cells; format: cell-based, human; conditions: maximum values, average ± standard deviation; concentration after adding per Table 7 (10.2-28.2 ppm)
Description: Also for HEK293T cells without transfer of the TRPA1 gene (hereinafter, also referred to as "non-transformed cells"), as a reference, 50 µL of the test solution of Example 9 and 50 µL of the test solution of Comparative Example 6 were added with the same method as performed for the cells with forced expression of TRPA1, and ΔRFU was determined.
(§1) In the present test, test solutions of Examples 13 to 28 and Comparative Examples 9 to 14 described later were used in place of the test solutions used in First Testing Method of Test 5. Except that, the amount of change in RFU before and after addition of each test solution (ΔRFU) was determined for cells with forced expression of TRPA1 and non-transformed cells with the same method as First Testing Method of Test 5.
The test solutions of Examples 13 to 28 and Comparative Examples 10 to 14 used in the present test were each obtained by adding a compound listed in Table 7 into HEPES buffer. The octanol/water partition coefficient (log Pow) of each compound listed in Table 7 was calculated with XlogP (Shanghai Institute of Organic Chemistry, Chinese Academy of Sciences, http://WWW.sio-ccbg.ac.cn/software/xlogp3/), which is software using the XlogP3 algorithm. Each test solution was added as 50-µL portions to wells, and the concentrations of the compounds were set to concentrations shown in Table 7. HEPES buffer was used as the test solution of Comparative Example 9 for a negative control (N.C.), and added as 50-µL portions to wells.
Table 7 and Figure 18 show average ± standard deviation of maximum values of ΔRFU. In the present test, SoftMax Pro Vr. 6 (manufactured by Molecular Devices, LLC.) and Excel (manufactured by Microsoft Corporation) were used for data analysis.

TRPA1 = target: T1, TRPA1 (Homo sapiens, UniProt O75762); test: Test 9: TRPA1 activity test, cells with forced expression of TRPA1; format: cell-based; conditions: for Δ RFU in cells with forced expression of TRPA1: maximum values, average ± standard deviation, concentration after adding per Table 7 (10.2-28.2 ppm); for Δ RFU in cells with forced expression of TRPA1 / Δ RFU in non-transformed cells: ratio of maximum ΔRFU values, concentration after adding per Table 7
T1 construct: expressed in transfected cells; host or cells: HEK293T cells, transient transfection with Lipofectamine 2000
Description: In the present test, first, human embryonic HEK293T cells were first suspended in DMEM medium to which penicillin-streptomycin (manufactured by Thermo Fisher Scientific, Inc.) and fetal bovine serum (manufactured by Sigma-Aldrich Co. LLC) were added to reach concentrations of 100 Unit/mL, 100 µg/mL, and 10%, respectively, seeded in a 96-well plate at a volume of 100 µL/well, and cultured under conditions of 5% CO2 and 37°C until a cell density reached 70 to 90%.
Thereafter, the DMEM medium in each well was completely removed, to which OptiMEM medium (manufactured by Thermo Fisher Scientific, Inc.) containing the gene transfer reagent Lipofectamine 2000 (manufactured by Thermo Fisher Scientific, Inc.) and a hTRPA1 gene expression plasmid was added at a volume of 50 µL/well. Then, culture was performed under conditions of 37°C and 5% CO2 for approximately 24 hours to transfer the TRPA1 gene into the HEK293T cells. The contents of Lipofectamine 2000 and the hTRPA1 gene expression plasmid per 50 µL of the OptiMEM medium were 0.3 µL and 400 ng, respectively. The TRPA1 gene can be confirmed with a DNA database such as GenBank.
When the density of the HEK293T cells transfected in the described manner (hereinafter, also referred to as "cells with forced expression of TRPA1") reached 90 to 100%, FLIPR Calcium 6 Assay Kit (manufactured by Molecular Devices, LLC.), a calcium-sensitive fluorescent dye, was added at a volume of 50 µL/well, and culture was performed under conditions of 37°C and 5% CO2 for 2 hours. Here, the expression of TRPA1 on cell membranes was confirmed by response to cinnamaldehyde (manufactured by Wako Pure Chemical Industries, Ltd.), which is a known TRPA1 ligand. DMSO was used for dilution of cinnamaldehyde, and the DMSO concentration in each well was set to 0.1% in view of cytotoxicity.
Ethyl caproate was added to HEPES buffer (10 mM HEPES, 130 mM NaCl, 5 mM KCl, 10 mM glucose, 2 mM CaCl2·2H2O, 1.2 mM MgCl2·6H2O, pH = 7.40), and thus a test solution of Example 9 containing ethyl caproate in a concentration of 255 ppm was obtained. For a negative control (N.C.), HEPES buffer was used as a test solution of Comparative Example 6. Measurement of fluorescence intensity for the cells with forced expression of TRPA1 was initiated, and, 20 seconds thereafter, 50-µL portions of each of the test solutions prepared were added to three wells. After the lapse of a predetermined period of time, the measurement of fluorescence intensity was completed, and ratios of fluorescence intensity at each time after addition of a test solution as the average of fluorescence intensity before addition of a test solution was assumed as 1 (hereinafter, also referred to as "RFU (relative fluorescence units)") were determined from measurements of fluorescence intensity. Further, change rates in RFU before and after addition of a test solution (hereinafter, also referred to as "ΔRFU") were determined at each time after addition of a test solution. Fluorescence intensity was measured by using a FlexStation 3 (manufactured by Molecular Devices, LLC.). The measurement of fluorescence intensity was performed at room temperature, and each test solution was used for adding to wells at room temperature, too.
as §1
The test solutions of Examples 13 to 28 and Comparative Examples 10 to 14 used in the present test were each obtained by adding a compound listed in Table 7 into HEPES buffer. […]

T1 sequence (O75762 whole entry): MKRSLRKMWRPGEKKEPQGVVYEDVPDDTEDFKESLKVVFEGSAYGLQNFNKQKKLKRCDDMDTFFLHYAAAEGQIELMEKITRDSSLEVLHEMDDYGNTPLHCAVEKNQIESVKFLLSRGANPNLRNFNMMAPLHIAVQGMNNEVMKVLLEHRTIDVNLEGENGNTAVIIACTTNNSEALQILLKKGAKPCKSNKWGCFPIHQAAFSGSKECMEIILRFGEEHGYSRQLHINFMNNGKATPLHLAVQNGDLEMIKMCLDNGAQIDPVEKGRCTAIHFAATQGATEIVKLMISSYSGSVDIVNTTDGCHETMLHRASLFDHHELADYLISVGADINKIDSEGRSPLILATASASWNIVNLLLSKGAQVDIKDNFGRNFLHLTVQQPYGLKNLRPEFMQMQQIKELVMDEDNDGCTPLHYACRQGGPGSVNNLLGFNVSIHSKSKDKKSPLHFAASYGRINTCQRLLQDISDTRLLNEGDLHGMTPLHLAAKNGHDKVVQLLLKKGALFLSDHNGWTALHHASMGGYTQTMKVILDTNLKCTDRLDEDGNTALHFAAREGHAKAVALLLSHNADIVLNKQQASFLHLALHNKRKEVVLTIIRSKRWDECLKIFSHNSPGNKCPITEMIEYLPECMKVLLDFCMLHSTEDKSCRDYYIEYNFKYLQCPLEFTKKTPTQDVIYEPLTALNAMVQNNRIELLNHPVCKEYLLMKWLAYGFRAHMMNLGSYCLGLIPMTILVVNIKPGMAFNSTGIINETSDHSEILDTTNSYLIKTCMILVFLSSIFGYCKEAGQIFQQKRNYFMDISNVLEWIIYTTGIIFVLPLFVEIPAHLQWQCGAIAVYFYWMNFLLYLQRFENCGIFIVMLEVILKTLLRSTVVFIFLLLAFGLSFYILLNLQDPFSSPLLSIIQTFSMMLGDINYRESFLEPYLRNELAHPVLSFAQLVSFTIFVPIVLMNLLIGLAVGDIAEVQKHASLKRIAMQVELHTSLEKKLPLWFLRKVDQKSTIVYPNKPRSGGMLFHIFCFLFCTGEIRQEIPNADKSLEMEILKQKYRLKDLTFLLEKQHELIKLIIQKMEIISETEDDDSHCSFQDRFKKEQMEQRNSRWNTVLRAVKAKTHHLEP

Row | Structure (SMILES) | Δ RFU in cells with forced expression of TRPA1 (TRPA1) | Δ RFU in cells with forced expression of TRPA1 / Δ RFU in non-transformed cells (TRPA1) | Δ RFU in non-transformed cells (non-transformed cells)
1 | CCOC(=O)CCC(C)C [Example 20, Ethyl 4-methylvalerate] | 2.0 ± 0.1 | 27.6 | 0.1 ± 0.0
2 | CCOC(C)=O [Comparative Example 10, Ethyl acetate, reference compound] | 0.2 ± 0.1 | 0.7 | 0.3 ± 0.0
3 | CCCCCCCC(=O)OCCC(C)C [Comparative Example 13, Isoamyl caprylate, reference compound] | 0.2 ± 0.1 | 0.6 | 0.3 ± 0.0
4 | CCCCCCCOC(C)=O [Example 16, Heptyl acetate] | 3.5 ± 0.7 | 127.8 | 0.0 ± 0.0
5 | CCC(C)COC(C)=O (stereo not drawn) [Example 15, 2-Methylbutyl acetate] | 0.6 ± 0.0 | 2.9 | 0.2 ± 0.0
6 | CCCCC(=O)OCC [Example 19, Ethyl valerate] | 0.6 ± 0.1 | 5.6 | 0.1 ± 0.0
7 | CCCCCC(=O)OC [Example 21, Methyl caproate] | 1.2 ± 0.2 | 5.4 | 0.2 ± 0.0
8 | CC(=O)OCCC(C)C [Example 13, Isoamyl acetate] | 0.7 ± 0.0 | 3.4 | 0.2 ± 0.0
9 | CCCOC(C)=O [Comparative Example 11, Propyl acetate, reference compound] | 0.2 ± 0.0 | 0.8 | 0.3 ± 0.0
10 | CCOC(=O)CC [Comparative Example 12, Ethyl propionate, reference compound] | 0.3 ± 0.0 | 0.9 | 0.3 ± 0.1
11 | CCC(=O)OCCC(C)C [Example 17, Isoamyl propionate] | 1.5 ± 0.5 | 12.4 | 0.1 ± 0.0
12 | CCCCCC(=O)OCCC(C)C [Example 25, Isoamyl caproate] | 3.0 ± 0.2 | 16.2 | 0.2 ± 0.0
13 | CCCC(=O)OCCC(C)C [Example 18, Isoamyl butyrate] | 2.0 ± 0.4 | 19.3 | 0.1 ± 0.0
14 | CCCCCOC(C)=O [Example 14, Pentyl acetate] | 0.8 ± 0.1 | 12.1 | 0.1 ± 0.0

More lines, main results first:

Row | Δ RFU in cells with forced expression of TRPA1 (TRPA1) | Δ RFU in cells with forced expression of TRPA1 / Δ RFU in non-transformed cells (TRPA1) | Structure (SMILES) | Δ RFU in non-transformed cells (non-transformed cells)
15 | 3.5 ± 1.1 | 12.8 | CCCCCOC(=O)CCCCC [Example 26, Pentyl caproate] | 0.3 ± 0.1
16 | 4.1 ± 0.3 | 29.1 | CCCCCC(=O)OCCCC [Example 24, Butyl caproate] | 0.1 ± 0.0
17 | 0.7 ± 0.1 | 8.3 | CCCCCCCC(=O)OC [Example 27, Methyl caprylate] | 0.1 ± 0.0
18 | 2.3 ± 0.4 | 19.0 | CCCCCCCC(=O)OCC [Example 28, Ethyl caprylate] | 0.1 ± 0.0
19 | 0.2 ± 0.0 | 0.8 | CCCCCCCCCCCC(=O)OCC [Comparative Example 14, Ethyl laurate, reference compound] | 0.2 ± 0.0
20 | 2.7 ± 1.1 | 12.9 | CCCCCC(=O)OCCC [Example 23, Propyl caproate] | 0.2 ± 0.0
21 | 2.2 ± 0.8 | 12.7 | CCCCCC(=O)OCC [Example 22, Ethyl caproate] | 0.2 ± 0.0
